In ChEMBL document CHEMBL1697723, “A predictive ligand-based Bayesian model for human drug-induced liver injury” (Drug Metab Dispos, 2010) one finds Hepatotoxicity data, which are given here for 48 molecules.

The subject of one data set is Hepatotoxicity. The experiment in a line: Human drug-induced liver injury (DILI) modelling dataset from Ekins et al.
Conditions: not given
For `C[C@]12CC[C@@H]3c4ccc(O)cc4CC[C@H]3[C@@H]1CC[C@@H]2O[C@@H]1O[C@H](C(=O)O)[C@@H](O)[C@H](O)[C@H]1O` [ESTRADIOL 17B GLUCURONIDE], the Hepatotoxicity entry was “DILI positive (training set)”.
On the same count and under the same terms, under `C[C@]12CC[C@@H]3c4ccc(O)cc4CC[C@H]3[C@@H]1CC[C@@H]2O` [ESTRADIOL] stands “DILI negative (training set)”.
On the same count and under the same terms, under `C[C@]12CC[C@@H]3c4ccc(O)cc4CC[C@H]3[C@@H]1CCC2=O` [ESTRONE] stands “DILI positive (training set)”; under `CS(=O)(=O)OCCOS(C)(=O)=O` [ETHANE DIMETHANE SULFONATE], “DILI positive (test set)”; under `C#C[C@]1(O)CC[C@H]2[C@@H]3CCc4cc(O)ccc4[C@H]3CC[C@@]21C` [ETHINYL ESTRADIOL], “DILI positive (test set)”.
Still for that read-out and setting: under `CCSCC[C@H](N)C(=O)O` [ETHIONINE] stands “DILI positive (training set)”; under `CCC1(C)CC(=O)NC1=O` (stereo not drawn) [ETHOSUXIMIDE], “DILI positive (test set)”; under `C#C[C@]1(OC(C)=O)CC[C@H]2[C@@H]3CCC4=C[C@@H](OC(C)=O)CC[C@@H]4[C@H]3CC[C@@]21C` [ETHYNODIOL DIACETATE], “DILI positive (training set)”.
`NC(=O)OCC(COC(N)=O)c1ccccc1` [FELBAMATE]: the Hepatotoxicity entry is “DILI positive (training set)”.
On the same count and under the same terms, the entry for `CC(C)OC(=O)C(C)(C)Oc1ccc(C(=O)c2ccc(Cl)cc2)cc1` [FENOFIBRATE] is “DILI positive (training set)”; for `CC(C(=O)[O-])c1cccc(Oc2ccccc2)c1.[Na+]` (stereo not drawn) [FENOPROFEN SODIUM] it is “DILI positive (training set)”.
For the molecule `O=c1[nH]c(=O)n([C@@H]2O[C@H](CO)[C@@H](O)[C@@H]2F)cc1I` [FIALURIDINE], the Hepatotoxicity result is “DILI positive (test set)”.
The same measure, in the same setting: the entry for `O=C(COc1ccc(Cl)cc1)N1CCN(Cc2ccc3c(c2)OCO3)CC1` [FIPEXIDE] is “DILI positive (test set)”; for `CC(=O)O.O=C(NCC1CCCCN1)c1cc(OCC(F)(F)F)ccc1OCC(F)(F)F` (stereo not drawn) [FLECAINIDE ACETATE] it is “DILI positive (training set)”.
On the same count and under the same terms, the entry for `O=c1[nH]c(=O)n([C@H]2C[C@H](O)[C@@H](CO)O2)cc1F` [FLOXURIDINE] is “DILI positive (training set)”; for `Nc1nc(=O)[nH]cc1F` [FLUCYTOSINE] it is “DILI positive (training set)”; for `CC(=O)OCC(=O)[C@@]1(O)CC[C@H]2[C@@H]3CCC4=CC(=O)CC[C@]4(C)[C@@]3(F)[C@@H](O)C[C@@]21C` [FLUDROCORTISONE ACETATE] it is “DILI negative (training set)”.
Still for that read-out and setting: the entry for `O=C(O)c1ccccc1Nc1cccc(C(F)(F)F)c1` [FLUFENAMIC ACID] is “DILI negative (test set)”; for `CCOC(=O)c1ncn2c1CN(C)C(=O)c1cc(F)ccc1-2` [FLUMAZENIL] it is “DILI negative (training set)”.
`C[C@H](C(=O)O)c1ccc2oc(-c3ccc(F)cc3)nc2c1` [FLUNOXAPROFEN]: the Hepatotoxicity result is “DILI negative (test set)”.
Same read-out and setting: the entry for `O=c1[nH]cc(F)c(=O)[nH]1` [FLUOROURACIL] is “DILI positive (test set)”.
The same measure, in the same setting: under `CC(C(=O)O)c1ccc(-c2ccccc2)c(F)c1` (stereo not drawn) [FLURBIPROFEN] stands “DILI positive (training set)”; under `CC(C)C(=O)Nc1ccc([N+](=O)[O-])c(C(F)(F)F)c1` [FLUTAMIDE], “DILI positive (training set)”.
The same measure, in the same setting: the entry for `COCCCC/C(=N\OCCN)c1ccc(C(F)(F)F)cc1` [FLUVOXAMINE] is “DILI positive (training set)”; for `Nc1nc2ncc(CNc3ccc(C(=O)N[C@@H](CCC(=O)O)C(=O)O)cc3)nc2c(=O)[nH]1` [FOLIC ACID] it is “DILI negative (training set)”.
Consider `O=C(O)P(=O)(O)O` [FOSCARNET], for which the Hepatotoxicity result is given as “DILI negative (test set)”.
`O=C1OCCN1/N=C/c1ccc([N+](=O)[O-])o1` [FURAZOLIDONE]: the Hepatotoxicity entry was “DILI positive (training set)”.
On the same count and under the same terms, the entry for `NCC1(CC(=O)O)CCCCC1` [GABAPENTIN] is “DILI negative (training set)”; for `CC[N+](CC)(CC)CCOc1cccc(OCC[N+](CC)(CC)CC)c1OCC[N+](CC)(CC)CC.[I-].[I-].[I-]` [GALLAMINE TRIETHIODIDE] it is “DILI negative (training set)”; for `COc1c(N2CCNC(C)C2)c(F)cc2c(=O)c(C(=O)O)cn(C3CC3)c12` (stereo not drawn) [GATIFLOXACIN] it is “DILI negative (training set)”.
As to `COc1cc2ncnc(Nc3ccc(F)c(Cl)c3)c2cc1OCCCN1CCOCC1` [GEFITINIB], the Hepatotoxicity entry was “DILI positive (test set)”.
Still for that read-out and setting: under `Cc1ccc(C)c(OCCCC(C)(C)C(=O)O)c1` [GEMFIBROZIL] stands “DILI positive (training set)”; under `Cc1ccc(S(=O)(=O)NC(=O)NN2CC3CCCC3C2)cc1` (stereo not drawn) [GLICLAZIDE], “DILI negative (training set)”.
On the same count and under the same terms, under `CCC1=C(C)CN(C(=O)NCCc2ccc(S(=O)(=O)NC(=O)N[C@H]3CC[C@H](C)CC3)cc2)C1=O` [GLIMEPIRIDE] stands “DILI negative (training set)”; under `N[C@H]1C(O)O[C@H](CO)[C@@H](O)[C@@H]1O` (stereo partly drawn) [GLUCOSAMINE], “DILI positive (training set)”.
On to `CCC1(c2ccccc2)CCC(=O)NC1=O` (stereo not drawn) [GLUTETHIMIDE], for which the Hepatotoxicity entry is “DILI positive (test set)”.
With `COC1=CC(=O)C[C@@H](C)[C@]12Oc1c(Cl)c(OC)cc(OC)c1C2=O` [GRISEOFULVIN], the Hepatotoxicity result is reported as “DILI positive (training set)”.
As for `N=C(N)NCCN1CCCCCCC1.N=C(N)NCCN1CCCCCCC1.O=S(=O)(O)O` [GUANETHIDINE SULFATE], the Hepatotoxicity result is “DILI positive (test set)”.
Still for that read-out and setting: the entry for `Oc1c(Cl)cc(Cl)c(Cl)c1Cc1c(O)c(Cl)cc(Cl)c1Cl` [HEXACHLOROPHENE] is “DILI positive (test set)”; for `CCN(CC)CCNc1ccc(CO)c2sc3ccccc3c(=O)c12` [HYCANTHONE] it is “DILI positive (training set)”.

The data set is the same for the next values; noted with them: Liver.
As for `OCCO` [ETHYLENE GLYCOL], the Hepatotoxicity result is “DILI positive (test set)”.
With `COc1cc([C@@H]2c3cc4c(cc3[C@@H](O[C@@H]3O[C@@H]5CO[C@@H](C)O[C@H]5[C@H](O)[C@H]3O)[C@H]3COC(=O)[C@H]23)OCO4)cc(OC)c1O` [ETOPOSIDE], the Hepatotoxicity entry is “DILI positive (training set)”.
Still for that read-out and setting: under `NC(N)=Nc1nc(CSCCC(N)=NS(N)(=O)=O)cs1` [FAMOTIDINE] stands “DILI negative (training set)”; under `CC(C)(C(=O)O)c1ccc(C(O)CCCN2CCC(C(O)(c3ccccc3)c3ccccc3)CC2)cc1` (stereo not drawn) [FEXOFENADINE], “DILI negative (test set)”; under `OC(Cn1cncn1)(Cn1cncn1)c1ccc(F)cc1F` [FLUCONAZOLE], “DILI positive (training set)”.
Still for that read-out and setting: the entry for `CC(C)n1c(/C=C/C(O)CC(O)CC(=O)O)c(-c2ccc(F)cc2)c2ccccc21` (stereo not drawn) [FLUVASTATIN] is “DILI negative (training set)”.
Still for that read-out and setting: the entry for `O=C(OCC(O)CO)c1ccccc1Nc1ccnc2cc(Cl)ccc12` (stereo not drawn) [GLAFENINE] is “DILI positive (training set)”; for `Cc1c(F)c(N2CCNC(C)C2)cc2c1c(=O)c(C(=O)O)cn2C1CC1` (stereo not drawn) [GREPAFLOXACIN] it is “DILI positive (test set)”.
